From patent publication US20020182619A1, “Compositions, kits, and methods for identification, assessment, prevention, and therapy of ovarian cancer” (Millennium Pharmaceuticals, Inc., priority 2000, published 2002)

System: ovarian cell line (OVCAR3)
Experiment: Transcript profiling on nylon arrays of OVCAR3 untreated or treated with LPA, LYS294002, or both
Format: cell-based
Description: Nylon arrays were prepared by spotting purified PCR product onto a nylon membrane using a robotic gridding system linked to a sample database. Several thousand clones were spotted on each nylon filter.
RNA or DNA from cell lines were used for hybridization against the nylon arrays. The RNA or DNA is labeled utilizing an in vitro reverse transcription reaction that contains a radiolabeled nucleotide that is incorporated during the reaction. Hybridization experiments were carried out by combining labeled RNA or DNA samples with nylon filters in a hybridization chamber. Duplicate, independent hybridization experiments were performed to generate transcriptional profiling data. See, Nature Genetics, 21 (1999).
The level of expression of ˜25,000 potential markers were measured in 4 samples, an untreated ovarian cell line (OVCAR3), OVCAR3 treated with LPA, OVCAR3 treated with LYS294002, and OVCAR3 treated with LPA and LYS294002. LYS294002 is a specific inhibitor of the P13Kinase pathway.
Table 1 represents the markers that are expressed at least 2.5 fold greater in the OVCAR3 cell line treated with LPA as compared to the untreated cell line (column G). Table 1 also lists the expression value of these potential marker in the 4 samples, untreated OVCAR3, OVCAR3 treated with LPA, OVCAR3 treated with LYS294002, and OVCAR3 treated with LYS294002 and LPA (columns C-F). […]

lysophosphatidic acid [LPA]
UPinLPA vs OVCAR3: marker expression in the OVCAR3 cell line treated with LPA as compared to the untreated cell line (markers of Table 1, quotient of Ave-LPA divided by Ave-OVCAR3): at least 2.5 fold | UPinOVCAR3 vs LPA: marker expression in the untreated OVCAR3 cell line as compared to the cell line treated with LPA (markers of Table 2, quotient of Ave-OVCAR3 divided by Ave-LPA): at least 4 fold
